Reference: ChEMBL document CHEMBL3638605, “N-hydroxy-benzamids for the treatment of cancer” (2014)

Molecular target: T1, Histone deacetylase 8 (Homo sapiens, UniProt Q9BY41)
T1 sequence (Q9BY41 whole entry): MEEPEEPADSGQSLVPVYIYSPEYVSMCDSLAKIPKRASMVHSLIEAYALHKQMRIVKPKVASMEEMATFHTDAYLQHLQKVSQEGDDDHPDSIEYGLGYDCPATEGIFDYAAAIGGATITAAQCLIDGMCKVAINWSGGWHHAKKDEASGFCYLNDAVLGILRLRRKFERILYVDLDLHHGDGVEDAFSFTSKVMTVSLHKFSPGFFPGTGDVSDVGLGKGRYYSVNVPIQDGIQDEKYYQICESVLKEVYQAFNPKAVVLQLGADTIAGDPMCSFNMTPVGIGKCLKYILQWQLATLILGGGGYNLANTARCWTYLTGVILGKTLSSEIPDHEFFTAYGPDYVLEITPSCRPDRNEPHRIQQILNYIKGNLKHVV
Test: Fluorometric Assay: Compounds were tested for their ability to inhibit histone deacetylase 8 using an in vitro deacetylation assay. In a detailed procedure, 8 μl of HDAC8 enzyme solution (0.125 μg/μl) was transferred to assay plates (CORNING 3676). 1 μl of half-log diluted compounds were added into wells and incubated for 15 min at rt. After that, 8 μl of substrate solution was transferred to the wells and incubated for 30 min at rt. After deacetylation of the substrate by incubation with HDAC8 enzyme, subsequent exposure to a developing reagent produced a fluorophore that was directly proportional to the level of deacetylation. So 4 μl of developer regent (Cayman 10006394) was added into the wells in the assay plates and incubated for 15 min. The fluorescence signal was measured by a FlexStation3 plate reader (excitation wave length 340-360 nm; emission wave length 440-465 nm).

O=C(NO)c1ccc2c(c1)CC(Nc1nccc(-c3cccnc3)n1)CN2 (stereo unspecified)
IC50: 470 nM
